{"source": "patent EP4813993A1", "about": "“COMPOUND, PREPARATION METHOD THEREFOR, AND USE THEREOF” (Sichuan Kelun Pharmaceutical Research Institute Co., Ltd., priority 2023, dated 2025)", "key": {"incision pain model": {"system": "incision pain model", "assay": "Incision pain model in SD rats, Von Frey test", "type": "in vivo", "experimental": "Experimental Example 7: Pharmacodynamic effect study of compounds in incision pain model in SD rats\nExperimental animals: SD rats, male, 180-220 g.\n(§1) Compound preparation: 5% (final preparation volume) of DMSO was added to dissolve the test compound, and then 10% (final preparation volume) of Cremophor EL and 85% Saline were sequentially added.\nA plantar incision pain model was established in rats via surgery before the administration and test. Rats were placed in an anesthesia induction chamber and given 3%-4% isoflurane for anesthesia induction. After the anesthesia induction, a breathing mask was applied, and the isoflurane concentration was adjusted to 1%-2% to prevent the rats from suffering pain during the surgery. Each rat was placed in a supine position, and the surgical site was disinfected with alcohol and iodophor. Under sterile conditions, a 0.5 cm longitudinal incision was made on the left hind paw surface, 0.2 cm away from the heel, extending toward the toes. The skin and fascia were incised; the plantar muscle was separated, slightly lifted, and longitudinally incised. The skin was then sutured with 5-0 sutures and disinfected.\n2. Administration and test\nThe Von Frey test was performed once before the surgery. On the second day after animal modeling, the test was repeated, and animals meeting the baseline requirements were selected for enrollment. The animals were randomly divided into 6 groups based on the 50% PWT values, with 10 animals per group. Administration was performed under a double-blind test protocol. The 50% PWT of the animals was measured separately before administration (baseline) and at 0.5 h, 2 h, 4 h, 6 h, or 8 h after administration, and a single dose was administered. The model control group was given normal saline, while the compound groups were given the compounds according to the administration doses in the table below."}, "[1]": {"system": "acetic acid writhing model", "assay": "Mouse acetic acid writhing model", "type": "in vivo, ICR mice", "conditions": "for Number of writhing responses / Inhibition rate (%): ICR mice; for Number of writhing responses: 60 min before 0.8% acetic acid i.p., 30 min observation, Mean + SD, n = 10; for Inhibition rate (%): inhibition of writhing responses vs control group"}, "formalin pain model": {"system": "formalin pain model", "assay": "Rat formalin pain model", "type": "in vivo, SD rats", "conditions": "for Number of pain responses 0 min / Number of pain responses 10 min / Number of pain responses 15 min / Number of pain responses 30 min / Number of pain responses 40 min / Number of pain responses 50 min / Number of pain responses 60 min: SD rats, Mean + SD, n = 10", "in_short": "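Male SD rats (180-200 g, n=10/group) dosed 0, 60 or 120 min before 50 µL 5% formalin into right plantar region. Pain responses counted for 1 min every 5 min over 60 min; inhibition rate relative to vehicle control group.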"}, "[2]": {"assay": "Tissue distribution study (dorsal root ganglia) in ICR mice", "type": "in vivo", "conditions": "male, mouse, oral administration 20 mg/kg", "experimental": "Experimental Example 4: Tissue distribution study of compounds in ICR mice\nExperimental animals: ICR mice, male, 6-8 weeks old.\nas §1\nExperimental design: The test compounds were administered to ICR mice as a single dose via oral administration (20 mg/kg; n = 3, 3 time points). Blood samples were collected at 0.25 h, 2 h, and 12 h after oral administration, followed by sacrifice of the animals. Dorsal root ganglia (DRG) were collected, rinsed with ice-cold normal saline to remove residual blood, blotted dry with absorbent paper, and stored at -70 °C for analysis.\nSample test: The concentrations of the compound drugs in dorsal root ganglia were determined by the LC-MS/MS method."}, "[3]": {"conditions": "mouse acetic acid writhing model"}, "[4]": {"conditions": "50 mg/kg p.o. 120 min before 5% formalin"}, "[5]": {"conditions": "125 mg/kg p.o. 120 min before 5% formalin"}}}
{"smiles": "COc1c(C2CC(C)(C(F)(F)F)SC2C(=O)Nc2ccnc(C(N)=O)c2)ccc(F)c1F", "note": "(single isomer, unassigned) [Compound 139-A, 4-(3-(3,4-difluoro-2-methoxyphenyl)-5-methyl-5-(trifluoromethyl)tetrahydrothiophene-2-carboxamido)picolinamide]", "values": [{"measurement": "analgesic activity compared with VX-548", "setting": "incision pain model; SD rats incision pain model, at the same dose", "result": "better analgesic activity than VX-548"}, {"measurement": "PWT 50% value (g) Post-surgery, Preadministration", "setting": "incision pain model; SD rats, 125 mg/kg group, baseline before administration, Mean + SEM, n = 10", "result": "3.95 ± 1.12", "unit": "g"}, {"measurement": "PWT 50% value (g) Pre-surgery", "setting": "incision pain model; SD rats, 125 mg/kg group, baseline before surgery, Mean + SEM, n = 10", "result": "14.4 ± 1.27", "unit": "g"}, {"measurement": "PWT 50% value (g) Time 0.5 h", "setting": "incision pain model; SD rats, 125 mg/kg single dose, 0.5 h after administration, Mean + SEM, n = 10", "result": "7.46 ± 3.86", "unit": "g"}, {"measurement": "PWT 50% value (g) Time 2 h", "setting": "incision pain model; SD rats, 125 mg/kg single dose, 2 h after administration, Mean + SEM, n = 10", "result": "10.11 ± 3.83", "unit": "g"}, {"measurement": "PWT 50% value (g) Time 6 h", "setting": "incision pain model; SD rats, 125 mg/kg single dose, 6 h after administration, Mean + SEM, n = 10", "result": "6.28 ± 2.28", "unit": "g"}, {"measurement": "PWT 50% value (g) Time 8 h", "setting": "incision pain model; SD rats, 125 mg/kg single dose, 8 h after administration, Mean + SEM, n = 10", "result": "6.29 ± 2.6", "unit": "g"}, {"measurement": "PWT 50% value (g) AUC0-8h", "setting": "incision pain model; SD rats, 125 mg/kg single dose, Mean + SEM, n = 10", "result": "60.47 ± 11.72", "unit": "g"}, {"measurement": "dose-effect relationship", "setting": "incision pain model; rat incision pain model", "result": "relatively good dose-effect relationship"}, {"measurement": "Number of writhing responses", "setting": "[1]; Dose 50 mg/kg", "result": "27±18"}, {"measurement": "Inhibition rate (%)", "setting": "[1]; Dose 50 mg/kg", "result": 45.36, "unit": "%"}, {"measurement": "Number of writhing responses", "setting": "[1]; Dose 125 mg/kg", "result": "18±12"}, {"measurement": "Inhibition rate (%)", "setting": "[1]; Dose 125 mg/kg", "result": 62.89, "unit": "%"}, {"measurement": "effect of inhibiting the number of writhing responses", "setting": "[1]; dose of 125 mg/kg", "result": "very significant effect"}, {"measurement": "dose-effect relationship", "setting": "[1]; [3]", "result": "relatively good dose-effect relationship"}, {"measurement": "inhibition of the writhing effect compared with VX-548", "setting": "[1]; [3]", "result": "better than VX-548"}, {"measurement": "Number of pain responses 0 min", "setting": "formalin pain model; [4]", "result": "35.6±6.7"}, {"measurement": "Number of pain responses 10 min", "setting": "formalin pain model; [4]", "result": "1.7±2.5"}, {"measurement": "Number of pain responses 15 min", "setting": "formalin pain model; [4]", "result": "6.8±3.9"}, {"measurement": "Number of pain responses 30 min", "setting": "formalin pain model; [4]", "result": "15.1±4.4"}, {"measurement": "Number of pain responses 40 min", "setting": "formalin pain model; [4]", "result": "12.7±5.9"}, {"measurement": "Number of pain responses 50 min", "setting": "formalin pain model; [4]", "result": "6.1±5.2"}, {"measurement": "Number of pain responses 60 min", "setting": "formalin pain model; [4]", "result": "2.7±2.6"}, {"measurement": "Number of pain responses 0 min", "setting": "formalin pain model; [5]", "result": "25.5±13.6"}, {"measurement": "Number of pain responses 10 min", "setting": "formalin pain model; [5]", "result": "1.1±1.1"}, {"measurement": "Number of pain responses 15 min", "setting": "formalin pain model; [5]", "result": "4.3±2.7"}, {"measurement": "Number of pain responses 30 min", "setting": "formalin pain model; [5]", "result": "11.7±6.3"}, {"measurement": "Number of pain responses 40 min", "setting": "formalin pain model; [5]", "result": "4.8±3.9"}, {"measurement": "Number of pain responses 50 min", "setting": "formalin pain model; [5]", "result": "1.8±1.8"}, {"measurement": "Number of pain responses 60 min", "setting": "formalin pain model; [5]", "result": "1.8±1.2"}, {"measurement": "dose-effect relationship", "setting": "formalin pain model; rat formalin pain model", "result": "relatively good dose-effect relationship"}, {"measurement": "analgesic activity in the first and second phases", "setting": "formalin pain model; rat formalin pain model, first phase immediately after injection, second phase about 15-20 min after", "result": "significant analgesic activity in both the first and second phases"}, {"measurement": "concentration at 0.25 h", "setting": "[2]; Time 0.25 h", "result": 1920, "unit": "ng/g"}, {"measurement": "concentration at 2 h", "setting": "[2]; Time 2 h", "result": 9380, "unit": "ng/g"}, {"measurement": "concentration at 12 h", "setting": "[2]; Time 12 h", "result": 2600, "unit": "ng/g"}]}
